Consider one molecule from US20240208950A1, “COMPOSITIONS AND METHODS FOR TREATMENT OF CERVICAL AND OVARIAN CANCER” (SOUTH DAKOTA BOARD OF REGENTS, priority 2021, published 2024).

One assay has as its system CaSki cells. The assay can be described thus: Cell proliferation assay (MTS), CaSki. It counts as cell-based, human. The following applies: 1-20 μM, 24 hours. The method, then: The effect of Br-ORM on CaSki and SiHa cells proliferation was performed using the MTS assay. Briefly, cells were seeded at a density of 5×10^3 cells per well in 96 well plate and allowed to stand overnight at 37° C. and 5% CO2 incubator. Next day, cells were treated with different concentrations of Br-ORM (1, 5, 10 and 20 μM). DMSO was used as a vehicle for the treatment of control cells. Twenty four hours post-treatment, 20 μL of MTS reagent (5 mg/mL) was added in each well and further incubated the plate for 2 hours in a CO2 incubator. Absorbance was taken after 2 hours at […] (SpectraMax M2 spectrophotometer, Molecular Devices, Sunnyvale, CA, USA). The experiment was performed in triplicates. Results were represented as percent viability with respect to the control group. […]
FIG. 13. […] Cell viability was assessed by MTS assay. […] Bar graphs indicating quantification of colony formation in CaSki (i), and SiHa (ii) cells of cervical cancer with respect to vehicle control. […] Briefly, cervical cancer cells were treated with Br-ORM (10 μM) for 24 hours and the apoptosis inducing effect of Br-ORM was analyzed by Annexin V staining. […] The equal loading of protein in each lane was determined by probing the blots with β-actin antibody (FIG. 13F). […] Br-ORM arrests cell cycle in G1/S phase as determined by flow cytometry. […]

Another assay relates to β-catenin in CaSki cells. Description: β-catenin degradation with cyclohexamide (western blot, pulse chase), CaSki. It counts as cell-based, human. As to conditions: ORM-Br. How it is done: A western blot analysis was conducted to determine the effect of ORM-Br on β-catenin degradation. […] Protein lysates were prepared and subjected to western blot analysis to ascertain the levels of protein of β-catenin in cyclohexamide-treated cells (FIG. 3A) and in ORM-Br and cyclohexamide-treated cells (FIG. 3B).
In general terms: Immunoblotting shows a protein as a band on a membrane.

Turning to `COc1ccc2c(c1)OC(C)(C)C(c1ccc(Br)cc1)C2c1ccc(OCCN2CCCC2)cc1` (stereo not drawn) [ORM-Br], the “cell viability / growth” value in the assay with CaSki cells is given as “inhibits the growth”; in the assay with CaSki cells (listed as Br-ORM), “dose dependently inhibited the cell viability”. In addition, the “protein levels of β-catenin relative to cyclohexamide treatment” value with β-catenin in CaSki cells is reported as “significant decrease in protein levels of β-catenin”.
